Reference: patent US20150105252A1, “SUBSTITUTED PYRAZOLES AS HERBICIDES” (E I DU PONT DE NEMOURS AND COMPANY, priority 2013, published 2015)

What was measured:
barnyardgrass [1] = assay: Test A preemergence; format: in vivo, Echinochloa crus-galli; details: preemergence
How it was run: (§1)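 Visual injury ratings, 0 = no effect to 100 = complete control, taken about 10 days after treatment against untreated controls. Test chemicals, in a non-phytotoxic surfactant-containing solvent, were sprayed onto soil preemergence or onto one- to two-leaf plants (2–10 cm) postemergence, in loam–sand soil under greenhouse conditions.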

foxtail, giant = assay: Test A preemergence; format: in vivo, Setaria faberii; details: preemergence
How it was run: as §1

pigweed = assay: Test A preemergence; format: in vivo, Amaranthus retroflexus; details: preemergence
How it was run: as §1

wheat = assay: Test A postemergence; format: in vivo, Triticum aestivum
How it was run: as §1

sedge, umbrella = assay: Test B flood; format: in vivo, Cyperus difformis; details: 250 g ai/ha, visual rating on 0 to 100 scale (0 no effect, 100 complete control), 13 to 15 days
How it was run: (§2)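 Plants were grown to the 2-leaf stage and pots flooded to 3 cm above soil. Compounds were applied directly into the paddy water, with depth kept for the test. After 13–15 days in greenhouse, response was rated visually against controls on a 0 (no effect) to 100 (complete control) scale.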

ducksalad = assay: Test B flood; format: in vivo, Heteranthera limosa; details: 250 g ai/ha, visual rating on 0 to 100 scale (0 no effect, 100 complete control), 13 to 15 days
How it was run: as §2

galium [2] = assay: Test C preemergence; format: in vivo, Galium aparine; details: for Plant response rating (scale of 0 to 100), Galium: Preemergence; for Galium plant response rating / Plant response rating, Galium: preemergence; for Plant response rating, Galium: scale 0 to 100, 0 = no effect, 100 = complete control
How it was run: (§3)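 Postemergence values come from plants sprayed at the 1- to 4-leaf stage (2–18 cm) in peat moss–vermiculite medium; preemergence values from seeds treated in a loam–sand blend. Both evaluated visually against controls after 13–15 greenhouse days, scale 0–100.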

corn = assay: Test C preemergence; format: in vivo, Zea mays; details: for Plant response rating (scale of 0 to 100), Corn: Preemergence; for Corn plant response rating / Plant response rating, Corn: preemergence; for Plant response rating, Corn: scale 0 to 100, 0 = no effect, 100 = complete control
How it was run: as §3

morningglory = assay: Test C preemergence; format: in vivo, Ipomoea coccinea; details: for Plant response rating (scale of 0 to 100), Morningglory: Preemergence; for Morningglory plant response rating / Plant response rating, Morningglory: preemergence; for Plant response rating, Morningglory: scale 0 to 100, 0 = no effect, 100 = complete control
How it was run: as §3

barnyardgrass [3] = assay: Test C preemergence; format: in vivo, Echinochloa crus-galli; details: for Plant response rating (scale of 0 to 100), Barnyardgrass: Preemergence; for Barnyardgrass plant response rating / Plant response rating, Barnyardgrass: preemergence; for Plant response rating, Barnyardgrass: scale 0 to 100, 0 = no effect, 100 = complete control
How it was run: as §3

blackgrass = assay: Test C postemergence; format: in vivo, Alopecurus myosuroides; details: for Plant response rating (scale of 0 to 100 where 0 is no effect and 100 is complete control), Blackgrass: Postemergence, 31 g ai/ha, visually evaluated after 13 to 15 days; for Blackgrass plant response rating / Plant response rating, Blackgrass: postemergence; for Blackgrass plant response rating: 62 g ai/ha, scale 0 to 100
How it was run: as §3

galium [4] = assay: Test C postemergence; format: in vivo, Galium aparine; details: for Plant response rating (scale of 0 to 100 where 0 is no effect and 100 is complete control), Galium: Postemergence, 31 g ai/ha, visually evaluated after 13 to 15 days; for Galium plant response rating / Plant response rating, Galium: postemergence; for Galium plant response rating: 62 g ai/ha, scale 0 to 100
How it was run: as §3

oilseed rape = assay: Test C postemergence; format: in vivo, Brassica napus; details: for Plant response rating (scale of 0 to 100 where 0 is no effect and 100 is complete control), Oilseed Rape: Postemergence, 31 g ai/ha, visually evaluated after 13 to 15 days; for Oilseed Rape plant response rating / Plant response rating, Oilseed Rape: postemergence; for Oilseed Rape plant response rating: 62 g ai/ha, scale 0 to 100
How it was run: as §3

[5] = 125 g ai/ha, visual injury, 0 to 100 scale, approx. 10 days
[6] = 500 g ai/ha, visual injury after approx. 10 days, 0 to 100 scale (0 no effect, 100 complete control)
[7] = Postemergence, 500 g ai/ha, 0 to 100 scale (0 no effect, 100 complete control)
[8] = postemergence, 125 g ai/ha, about 10 days, visual rating on 0 to 100 scale (0 no effect, 100 complete control)
[9] = 31 g ai/ha, visual rating, scale 0 to 100 (0 no effect, 100 complete control), 13 to 15 days
[10] = 62 g ai/ha, scale 0 to 100 (0 no effect, 100 complete control), 13 to 15 days
[11] = 125 g ai/ha, scale 0 to 100, 0 is no effect, 100 is complete control
[12] = 31 g ai/ha, scale 0 to 100 (0 no effect, 100 complete control), 13 to 15 days
[13] = 250 g ai/ha, scale 0 to 100 (0 no effect, 100 complete control)
[14] = 125 g ai/ha, scale 0 to 100, 0 no effect, 100 complete control
[15] = 250 g ai/ha, scale 0 to 100, 0 is no effect, 100 is complete control

| Structure (SMILES) | Barnyardgrass plant response rating (barnyardgrass [1]; [5]) | Barnyardgrass plant response rating (barnyardgrass [1]; [6]) | Foxtail, Giant plant response rating (foxtail, giant; [5]) | Foxtail, Giant plant response rating (foxtail, giant; [6]) | Pigweed plant response rating (pigweed; [5]) | Pigweed plant response rating (pigweed; [6]) | Wheat plant response rating (wheat; [7]) | Wheat plant response rating (wheat; [8]) | Plant response rating, Sedge, Umbrella (sedge, umbrella) | Plant response rating, Ducksalad (ducksalad) | Galium plant response rating (galium [2]; [9]) | Galium plant response rating (galium [2]; [10]) | Corn plant response rating (corn; [9]) | Corn plant response rating (corn; [10]) | Morningglory plant response rating (morningglory; [9]) | Morningglory plant response rating (morningglory; [10]) | Barnyardgrass plant response rating (barnyardgrass [3]; [12]) | Barnyardgrass plant response rating (barnyardgrass [3]; [10]) | Plant response rating (scale of 0 to 100 where 0 is no effect and 100 is complete control), Blackgrass (blackgrass) | Blackgrass plant response rating (blackgrass) | also measured |
| --- | --- | --- | --- | --- | --- | --- | --- | --- | --- | --- | --- | --- | --- | --- | --- | --- | --- | --- | --- | --- | --- |
| CCc1cc(C(=O)NOC(C)C)nn1Cc1ccnc(OC(F)F)c1 [Compound 126] | 90 | 100 | 100 | 100 | 100 | 100 | 90 | 90 | 95 | 95 | 85 | 98 | 25 | 65 | 55 | 70 | 75 | 100 | 5 | 5 | Plant response rating (scale of 0 to 100), Galium (galium [2]; 250 g ai/ha): 100; Galium plant response rating (galium [2]; [11]): 100; Plant response rating (scale of 0 to 100), Corn (corn; 250 g ai/ha): 98; Corn plant response rating (corn; [11]): 90; Plant response rating (scale of 0 to 100), Morningglory (morningglory; 250 g ai/ha): 100; Morningglory plant response rating (morningglory; [11]): 98; Plant response rating (scale of 0 to 100), Barnyardgrass (barnyardgrass [3]; 250 g ai/ha): 100; Barnyardgrass plant response rating (barnyardgrass [3]; [11]): 100; Plant response rating, Blackgrass (blackgrass; [13]): 25; Plant response rating, Blackgrass (blackgrass; [14]): 20; Plant response rating (scale of 0 to 100 where 0 is no effect and 100 is complete control), Galium (galium [4]): 50; Galium plant response rating (galium [4]): 50; Plant response rating, Galium (galium [4]; [13]): 70; Plant response rating, Galium (galium [4]; [14]): 55; Plant response rating (scale of 0 to 100 where 0 is no effect and 100 is complete control), Oilseed Rape (oilseed rape): 45; Oilseed Rape plant response rating (oilseed rape): 50; Plant response rating, Oilseed Rape (oilseed rape; [13]): 70; Plant response rating, Oilseed Rape (oilseed rape; [14]): 60 |
| CCOc1cc(C(=O)NCC(F)(F)F)nn1Cc1ccnc(OC(F)F)c1 [Compound 128] | 100 | 100 | 100 | 100 | 100 | 100 | 90 | 70 | 90 | 95 | 80 | 80 | 15 | 45 | 75 | 70 | 80 | 90 | 10 | 5 | Plant response rating (scale of 0 to 100), Galium (galium [2]; 250 g ai/ha): 100; Plant response rating, Galium (galium [2]; 125 g ai/ha, 13 to 15 days): 100; Plant response rating (scale of 0 to 100), Corn (corn; 250 g ai/ha): 70; Plant response rating, Corn (corn; 125 g ai/ha, 13 to 15 days): 65; Plant response rating (scale of 0 to 100), Morningglory (morningglory; 250 g ai/ha): 100; Plant response rating, Morningglory (morningglory; 125 g ai/ha, 13 to 15 days): 98; Plant response rating (scale of 0 to 100), Barnyardgrass (barnyardgrass [3]; 250 g ai/ha): 100; Plant response rating, Barnyardgrass (barnyardgrass [3]; 125 g ai/ha, 13 to 15 days): 98; Plant response rating, Blackgrass (blackgrass; [13]): 80; Plant response rating, Blackgrass (blackgrass; [14]): 10; Plant response rating (scale of 0 to 100 where 0 is no effect and 100 is complete control), Galium (galium [4]): 60; Galium plant response rating (galium [4]): 65; Plant response rating, Galium (galium [4]; [13]): 70; Plant response rating, Galium (galium [4]; [14]): 80; Plant response rating (scale of 0 to 100 where 0 is no effect and 100 is complete control), Oilseed Rape (oilseed rape): 50; Oilseed Rape plant response rating (oilseed rape): 60; Plant response rating, Oilseed Rape (oilseed rape; [13]): 90; Plant response rating, Oilseed Rape (oilseed rape; [14]): 60 |
| CCCNC(=O)c1cc(OCC)n(Cc2ccnc(OC(F)F)c2)n1 [Compound 136] | 100 | 100 | 100 | 100 | 100 | 100 | 90 | 60 | 80 | 80 | 85 | 100 | 35 | 70 | 100 | 100 | 75 | 100 | 5 | 10 | Plant response rating, Galium (galium [2]; 125 g ai/ha, 13 to 15 days): 100; Galium plant response rating (galium [2]; [15]): 100; Plant response rating, Corn (corn; 125 g ai/ha, 13 to 15 days): 60; Corn plant response rating (corn; [15]): 85; Plant response rating, Morningglory (morningglory; 125 g ai/ha, 13 to 15 days): 100; Morningglory plant response rating (morningglory; [15]): 100; Plant response rating, Barnyardgrass (barnyardgrass [3]; 125 g ai/ha, 13 to 15 days): 100; Barnyardgrass plant response rating (barnyardgrass [3]; [15]): 100; Plant response rating, Blackgrass (blackgrass; [13]): 40; Plant response rating, Blackgrass (blackgrass; [14]): 15; Plant response rating (scale of 0 to 100 where 0 is no effect and 100 is complete control), Galium (galium [4]): 60; Galium plant response rating (galium [4]): 60; Plant response rating, Galium (galium [4]; [13]): 80; Plant response rating, Galium (galium [4]; [14]): 60; Plant response rating (scale of 0 to 100 where 0 is no effect and 100 is complete control), Oilseed Rape (oilseed rape): 60; Oilseed Rape plant response rating (oilseed rape): 60; Plant response rating, Oilseed Rape (oilseed rape; [13]): 85; Plant response rating, Oilseed Rape (oilseed rape; [14]): 70 |
